From the NIST ThermoML archive (doi:10.1021/je800017j)
Numbers after ± are expanded uncertainties.

Assay: xn = mol fraction of the nth substance listed
Details: Liquid, Vibrating tube method

C=CC [propene] + CC(C)O
Details	mass density [kg/m3]
325.09 K, 5370.7 kPa, x1 = 0.2011	709.32 ± 0.74
325.09 K, 5883.5 kPa, x1 = 0.2011	709.98 ± 0.75
325.09 K, 6336.2 kPa, x1 = 0.2011	710.58 ± 0.75
325.09 K, 6788.4 kPa, x1 = 0.2011	711.17 ± 0.75
325.09 K, 7346.6 kPa, x1 = 0.2011	711.9 ± 0.75
325.09 K, 7879.3 kPa, x1 = 0.2011	712.57 ± 0.75
325.09 K, 8392.5 kPa, x1 = 0.2011	713.18 ± 0.75
325.09 K, 8985.2 kPa, x1 = 0.2011	713.89 ± 0.76
325.09 K, 9587.7 kPa, x1 = 0.2011	714.65 ± 0.76
325.13 K, 1747.5 kPa, x1 = 0.6478	573.29 ± 0.62
325.13 K, 2151.8 kPa, x1 = 0.6478	574.52 ± 0.63
325.13 K, 2607.5 kPa, x1 = 0.6478	575.84 ± 0.63
325.13 K, 3022.1 kPa, x1 = 0.6478	577 ± 0.64
325.13 K, 3422.7 kPa, x1 = 0.6478	578.16 ± 0.64
325.13 K, 3826.3 kPa, x1 = 0.6478	579.23 ± 0.64
325.13 K, 4289 kPa, x1 = 0.6478	580.41 ± 0.64
325.13 K, 4682.5 kPa, x1 = 0.6478	581.48 ± 0.65
325.13 K, 5094.6 kPa, x1 = 0.6478	582.53 ± 0.65
325.13 K, 5524.8 kPa, x1 = 0.6478	583.59 ± 0.65
325.13 K, 5972.2 kPa, x1 = 0.6478	584.68 ± 0.66
325.13 K, 6431 kPa, x1 = 0.6478	585.75 ± 0.66
325.13 K, 6923.3 kPa, x1 = 0.6478	586.94 ± 0.66
325.13 K, 7433.5 kPa, x1 = 0.6478	588.03 ± 0.67
325.13 K, 7935 kPa, x1 = 0.6478	589.22 ± 0.67
325.13 K, 8459.9 kPa, x1 = 0.6478	590.39 ± 0.67
325.13 K, 9024 kPa, x1 = 0.6478	591.62 ± 0.68
325.13 K, 9558.5 kPa, x1 = 0.6478	592.78 ± 0.68
350.12 K, 2332.3 kPa, x1 = 0.5201	576.59 ± 0.63
350.12 K, 2731.4 kPa, x1 = 0.5201	577.92 ± 0.63
350.12 K, 2992.4 kPa, x1 = 0.5201	578.85 ± 0.64
350.12 K, 3218 kPa, x1 = 0.5201	579.68 ± 0.64
350.12 K, 3506.1 kPa, x1 = 0.5201	580.58 ± 0.64
350.12 K, 3765.6 kPa, x1 = 0.5201	581.46 ± 0.64
350.12 K, 4225.5 kPa, x1 = 0.5201	582.95 ± 0.65
350.12 K, 4550.6 kPa, x1 = 0.5201	583.87 ± 0.65
350.12 K, 4824.4 kPa, x1 = 0.5201	584.73 ± 0.65
350.12 K, 5103.7 kPa, x1 = 0.5201	585.64 ± 0.65
350.12 K, 5399.3 kPa, x1 = 0.5201	586.54 ± 0.65
350.12 K, 5715.5 kPa, x1 = 0.5201	587.44 ± 0.66
350.12 K, 5999.5 kPa, x1 = 0.5201	588.29 ± 0.66
350.12 K, 6303.9 kPa, x1 = 0.5201	589.18 ± 0.66
350.12 K, 6632.8 kPa, x1 = 0.5201	590.1 ± 0.66
350.12 K, 6975.5 kPa, x1 = 0.5201	591.05 ± 0.67
350.12 K, 7280 kPa, x1 = 0.5201	591.94 ± 0.67
350.12 K, 7641.3 kPa, x1 = 0.5201	592.87 ± 0.67
350.12 K, 7963.5 kPa, x1 = 0.5201	593.76 ± 0.67
350.12 K, 8312 kPa, x1 = 0.5201	594.68 ± 0.68
350.12 K, 8762.4 kPa, x1 = 0.5201	595.82 ± 0.68
350.12 K, 9211 kPa, x1 = 0.5201	596.88 ± 0.68
350.12 K, 9622.9 kPa, x1 = 0.5201	597.92 ± 0.69
350.18 K, 1639.5 kPa, x1 = 0.2011	677.13 ± 0.71
350.18 K, 2070 kPa, x1 = 0.2011	677.93 ± 0.71
350.18 K, 2446.2 kPa, x1 = 0.2011	678.64 ± 0.71
350.18 K, 2689 kPa, x1 = 0.6478	531.01 ± 0.6
350.18 K, 2924.3 kPa, x1 = 0.2011	679.5 ± 0.71
350.18 K, 3126.3 kPa, x1 = 0.6478	533.02 ± 0.61
350.18 K, 3271.4 kPa, x1 = 0.2011	680.17 ± 0.72
350.18 K, 3675.3 kPa, x1 = 0.2011	680.86 ± 0.72
350.18 K, 3686.2 kPa, x1 = 0.6478	535.68 ± 0.61
350.18 K, 3914.3 kPa, x1 = 0.6478	536.74 ± 0.62
350.18 K, 4058.4 kPa, x1 = 0.2011	681.6 ± 0.72
350.18 K, 4203.2 kPa, x1 = 0.6478	537.97 ± 0.62
350.18 K, 4446.8 kPa, x1 = 0.2011	682.32 ± 0.72
350.18 K, 4484.6 kPa, x1 = 0.6478	539.15 ± 0.62
350.18 K, 4738.5 kPa, x1 = 0.6478	540.5 ± 0.62
350.18 K, 4791.3 kPa, x1 = 0.2011	682.93 ± 0.72
350.18 K, 5023.4 kPa, x1 = 0.6478	541.63 ± 0.62
350.18 K, 5171.9 kPa, x1 = 0.2011	683.6 ± 0.72
350.18 K, 5321.2 kPa, x1 = 0.6478	542.86 ± 0.63
350.18 K, 5557.4 kPa, x1 = 0.2011	684.26 ± 0.73
350.18 K, 5614 kPa, x1 = 0.6478	543.95 ± 0.63
350.18 K, 5938.9 kPa, x1 = 0.6478	545.1 ± 0.63
350.18 K, 6002 kPa, x1 = 0.2011	684.96 ± 0.73
350.18 K, 6268.4 kPa, x1 = 0.6478	546.35 ± 0.64
350.18 K, 6430.2 kPa, x1 = 0.2011	685.69 ± 0.73
350.18 K, 6622.1 kPa, x1 = 0.6478	547.76 ± 0.64
350.18 K, 6978.6 kPa, x1 = 0.6478	548.98 ± 0.64
350.18 K, 7071.2 kPa, x1 = 0.2011	686.73 ± 0.73
350.18 K, 7362 kPa, x1 = 0.6478	550.27 ± 0.65
350.18 K, 7570.5 kPa, x1 = 0.2011	687.62 ± 0.73
350.18 K, 7736.5 kPa, x1 = 0.6478	551.56 ± 0.65
350.18 K, 7944.1 kPa, x1 = 0.2011	688.25 ± 0.74
350.18 K, 8126.2 kPa, x1 = 0.6478	552.91 ± 0.65
350.18 K, 8386.8 kPa, x1 = 0.2011	688.92 ± 0.74
350.18 K, 8525.5 kPa, x1 = 0.6478	554.11 ± 0.66
350.18 K, 8826.8 kPa, x1 = 0.2011	689.6 ± 0.74
350.18 K, 8979.8 kPa, x1 = 0.6478	555.58 ± 0.66
350.18 K, 9279 kPa, x1 = 0.2011	690.38 ± 0.74
350.18 K, 9488 kPa, x1 = 0.6478	557.04 ± 0.66
350.18 K, 9779.6 kPa, x1 = 0.2011	691.08 ± 0.74
350.18 K, 9989.8 kPa, x1 = 0.6478	558.59 ± 0.67

Details	mass density [kg/m3]
325.09 K, x1 = 0.2011	703.01 ± 0.73
325.13 K, x1 = 0.6478	573.24 ± 0.62
350.12 K, x1 = 0.5201	575.99 ± 0.62
350.18 K, x1 = 0.2011	676.38 ± 0.7
350.18 K, x1 = 0.6478	530.66 ± 0.59
